Reference: US11352392B2, “Artificially synthesized peptide H-473 and use thereof” (CHINA WEST NORMAL UNIVERSITY, priority 2018, dated 2022)
Ends that are not written are not given here.

What was measured:
[1] = test system: cfpac-1 xenograft tumors; assay: Pharmacodynamic experiment on cfpac-1 xenograft tumor in nude mice; assay type: in vivo, BALB/c nude mice; details: cfpac-1 xenograft nude mice; H-473 1 μg/kg or Interleukin-2 200,000 IU/kg, tail vein, once a day for 10 times
Method: (§1) Model control group: physiological saline, 0.1 ml/10 g, once a day for 10 times.
The cultured cfpac-1 cell suspension was collected at a concentration of 1×10^7 cells/ml and inoculated subcutaneously in the right axilla of nude mice, 0.1 ml/mouse.
Diameters of the xenograft tumors in nude mice were measured with a vernier caliper. 17 days after inoculation, the animals were randomized into groups with 8 in each group when the tumors grew to 100-150 mm^3. At the same time, each group of nude mice began to be dosed. […] The anti-tumor effect of the test sample was dynamically observed by using a method of measuring tumor diameter. […]
(§2) Tumor volume (TV) was calculated according to the following formula: TV=½×a×b^2, wherein, a and b represent length and width, respectively.
(§3) Relative tumor volume (RTV) was calculated according to the measured results according to the following formula: RTV=Vt/V0, wherein, V0 is tumor volume measured when the animals are divided into cages and dosed (i.e., d0) and Vt is tumor volume at each measurement.
(§4) Evaluation indicator of anti-tumor activity: relative tumor proliferation rate T/C (%) was calculated according to the following formula:
(§5) Evaluation indicator of antitumor activity: tumor growth inhibition rate (%) was calculated according to the following formula: […]

[2] = test system: MGC-803 xenograft tumors; assay: Pharmacodynamic experiment on human gastric cancer MGC-803 xenograft tumor in nude mice; assay type: in vivo, BALB/c nude mice; details: MGC-803 xenograft nude mice; H-473 1 μg/kg or Interleukin-2 200,000 IU/kg, tail vein, once a day for 10 times
Method: as §1
The cultured MGC-803 cell suspension was collected at a concentration of 1×10^7 cells/ml and inoculated subcutaneously in the right axilla of nude mice, 0.1 ml/mouse.
Diameters of the xenograft tumors in nude mice were measured with a vernier caliper. 8 days after inoculation, the animals were randomized into groups with 8 in each group when the tumors grew to 100-150 mm^3. At the same time, each group of nude mice began to be dosed. […] The anti-tumor effect of the test sample was dynamically observed by using a method of measuring tumor diameter. […]
as §2, §3, §4, §5

[3] = test system: asthma in mice; assay: Effect on asthma in mice (OVA sensitization, BALF cell count); assay type: in vivo, BALB/C mice; details: dexamethasone 1 mg/kg intramuscular, 7 d
Method: At day 35 of the experiment, the test samples were respectively given one hour prior to OVA atomization.
5.6.1 Asthma model: mice were injected intraperitoneally with 0.2 ml of a sensitizing solution (ovalbumin OVA 80 μg+ Adjuvant liquid aluminum 0.1 ml) twice on days 0 and 14. From day 24 after the first sensitization, 2.5% OVA was aerosolized and inhaled for 45 min once daily for 18 days.
5.6.2 Administration: the corresponding test sample was given 1 h before the OVA solution atomization challenge since day 35 of the experiment. H-473 15 μg/kg group and H-473 30 μg/kg group were injected intramuscularly, respectively. The positive control group was injected with dexamethasone 1 mg/kg intramuscularly. Normal control group and model control group were injected with saline intramuscularly.
General global observations: respiratory rate, whether there was dyspnea, cyanosis, dysphoria and convulsion.
Bronchoalveolar lavage fluid (BALF) cells were counted and classified (EOS ratio elevated or not).

Compound | Body weight of animals At sacrifice [1] [g] | Body weight of animals At sacrifice [2] [g] | BALF ESO [3] | BALF ESO % [3] [%] | BALF WBC [3]
RGLRGLR [H-473, RGLRGLR] | 22.91 ± 1.12 | 22.80 ± 0.97 | – | – | –
C[C@@H]1C[C@H]2[C@@H]3CCC4=CC(=O)C=C[C@]4(C)[C@@]3(F)[C@@H](O)C[C@]2(C)[C@@]1(O)C(=O)CO [Positive control, dexamethasone] | – | – | 0.15 ± 0.05^## 10^9/L | 3.75 ± 0.83 | 3.8 ± 0.5^## 10^9/L
